The target in series [1] is T1, recombinant human Meningioma Expressed Antigen 5 (MGEA5), also referred to as O-GlcNAcase (OGA) (Homo sapiens, UniProt O60502).
T1 construct: Full length OGA enzyme was purchased at OriGene (cat #TP322411); purchased OriGene TP322411
T1 sequence (O60502 1-916): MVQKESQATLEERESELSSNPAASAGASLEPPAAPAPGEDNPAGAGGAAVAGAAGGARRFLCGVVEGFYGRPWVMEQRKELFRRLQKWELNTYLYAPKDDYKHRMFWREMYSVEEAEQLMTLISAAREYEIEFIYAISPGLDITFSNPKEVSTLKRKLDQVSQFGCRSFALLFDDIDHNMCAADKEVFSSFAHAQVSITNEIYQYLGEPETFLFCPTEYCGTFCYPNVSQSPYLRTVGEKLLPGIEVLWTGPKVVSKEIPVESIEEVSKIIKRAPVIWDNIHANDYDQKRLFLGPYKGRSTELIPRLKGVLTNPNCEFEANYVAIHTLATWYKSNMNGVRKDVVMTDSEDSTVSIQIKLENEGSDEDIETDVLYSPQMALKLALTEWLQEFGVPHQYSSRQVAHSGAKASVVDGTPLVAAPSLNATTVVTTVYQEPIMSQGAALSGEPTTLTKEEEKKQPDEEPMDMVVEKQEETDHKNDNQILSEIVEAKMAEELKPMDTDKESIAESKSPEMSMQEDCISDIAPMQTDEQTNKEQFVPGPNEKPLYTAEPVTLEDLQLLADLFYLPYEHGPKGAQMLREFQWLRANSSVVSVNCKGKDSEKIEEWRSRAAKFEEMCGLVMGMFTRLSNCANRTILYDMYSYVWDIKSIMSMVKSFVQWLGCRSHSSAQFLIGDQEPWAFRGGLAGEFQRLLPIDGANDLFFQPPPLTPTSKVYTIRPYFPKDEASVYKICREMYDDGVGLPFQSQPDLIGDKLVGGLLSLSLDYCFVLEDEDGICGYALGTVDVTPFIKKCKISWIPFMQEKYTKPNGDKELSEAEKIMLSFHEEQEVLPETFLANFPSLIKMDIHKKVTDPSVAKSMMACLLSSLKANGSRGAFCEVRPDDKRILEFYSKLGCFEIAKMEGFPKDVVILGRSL
The series can be described thus: OGA biochemical assay (inhibition of FM-GlcNAc hydrolysis, fluorescence). The conditions noted are these: for IC50: Enzymatic hOGA; for Emax: read-out: Enzymatic Emax (%). Put shortly: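 Full-length recombinant OGA at 2 nM with 100 uM FM-GlcNAc in 200 mM citrate/phosphate buffer, 0.005% Tween-20. IC50 and Hill coefficient from curve fit between no-inhibitor and saturating standard-inhibitor controls.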

The target in a further series is T2, hOGA (Homo sapiens, UniProt O60502).
T2 construct: endogenous in cells; host or cells: HEK293 cells inducible for P301L mutant human Tau (isoform 2N4R)
T2 sequence (O60502 1-916): T1 sequence (O60502 1-916)
The experiment in a line: OGA cellular assay (ICC detection of O-GlcNAcylated proteins in HEK293 cells inducible for P301L mutant human Tau). The series is classed as cell-based. Also on record: Emax: dose or concentration left out as unconfirmed. The conditions noted are these: for EC50: Cellular hOGA; for Emax: HEK293, read-out: Cellular Emax (%). An outline of the steps:
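HEK293 cells inducible for P301L Tau (2N4R), seeded in low-glucose medium, treated with compound for 6 h at 0.2% DMSO. After PFA fixation, O-GlcNAcylated proteins stained with CTD110.6 and imaged (488 nm intensity, 9 fields/well); Hoechst nuclei count for toxicity. IC50 by non-linear regression, Thiamet-G 200 μM as maximum.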

Where [2] appears, read: pIC50, Table 5, full length OGA 2 nM, FM-GlcNAc 100 uM, 6 h at room temperature.
[3] abbreviates: pEC50, Table 5, HEK293 P301L Tau cells, 6 hours incubation, O-GlcNAcylation readout.
Where [4] appears, read: second table, averaged values over several runs, obtained after recalibration of the equipment.

Compound `Cc1cc(C(F)(F)F)cc(C)c1Nc1nccc2c1ncn2CC(=O)N(C)C` [Compound 61, 2-(4-((2,6-Dimethyl-4-(trifluoromethyl)phenyl)amino)-1H-imidazo[4,5-c]pyridin-1-yl)-N,N-dimethylacetamide] returned a melting point of 207.65 °C. For the same compound, the concentration for half-maximal inhibition (IC50) in series [1] (setting [2]) was 9.33 nM. For the same compound, the maximum response (Emax) in series [1] was found to be 98%. Moreover, the midpoint of the response on hOGA (setting [3]), the EC50, lay at 107 nM. Moreover, the Emax on hOGA is 87%.

For `Cc1cc(C(F)(F)F)cc(C)c1Nc1nccc2c1ncn2-c1ccc(F)cn1` [Compound 60, N-(2,6-Dimethyl-4-(trifluoromethyl)phenyl)-1-(5-fluoropyridin-2-yl)-1H-imidazo[4,5-c]pyridin-4-amine], the melting point worked out at 186.5 °C. In series [1] (setting [2]), the half-inhibitory concentration (IC50) was 117 nM. Moreover, the Emax in series [1] was found to be 100%. The EC50 on hOGA (setting [3]) is 933 nM. Besides, on hOGA, the Emax came to 44%.

Compound `Cc1cc(F)c(F)c(C)c1Nc1nccc2c1ncn2CC(=O)N(C)C` [Compound 78] gave a melting point of 198.1 °C. In addition, the half-maximal inhibitory concentration (IC50) in series [1] (pIC50, second table, averaged values over several runs, obtained after recalibration of the equipment) was 21.4 nM. Further, the midpoint of the response at hOGA (pEC50, second table, averaged values over several runs, obtained after recalibration of the equipment), the EC50, lay at 427 nM.

`CN(C)C(=O)Cn1cnc2c(Nc3c(Cl)cc(OC(F)(F)F)cc3Cl)nccc21` [Compound 7] yielded a melting point of 201.5 °C. Also, in series [1] (setting [2]), the IC50 is 6.92 nM. Also, in series [1], the Emax was found to be 102%. On hOGA (setting [3]), this compound showed a concentration for a half-maximal effect (EC50) of 372 nM. Besides, the Emax on hOGA was determined as 66%.

`Cc1cc(C(F)(F)F)cc(C)c1Nc1nccc2c1ncn2C1CCCCO1` (stereo not drawn) [Compound 73] came in with a melting point of 169.8 °C. Moreover, the “Enzymatic hOGA; pIC50” value in series [1] (Table 5, full length OGA 2 nM, FM-GlcNAc 100 uM, 6 h at room temperature) is listed as 6.77. In series [1], the Emax is 100%. For the same compound, the “Enzymatic hOGA; pIC50” value in series [1] (setting [4]) came out at 6.91. In addition, the Emax on hOGA turned out to be 42%. Besides, on hOGA (Table 5, HEK293 P301L Tau cells, 6 hours incubation, O-GlcNAcylation readout), the “Cellular hOGA; pEC50” value is recorded as less than 6. Moreover, the “Cellular hOGA; pEC50” value on hOGA (setting [4]) stood at 6.42.

`CN(C)C(=O)Cn1cnc2c(Nc3c(Cl)cc(F)cc3Cl)nccc21` [Compound 21] registered a melting point of 243.4 °C. In series [1] (setting [2]), the 50% inhibitory concentration (IC50) is 30.9 nM. Also, in series [1], the Emax was 95%. Besides, a half-maximal effect on hOGA (setting [3]) (EC50) was put at 123 nM. Moreover, the Emax at hOGA worked out at 69%.

The values above are taken from patent publication US20230099293A1, “OGA INHIBITOR COMPOUNDS” (priority 2019, published 2023).
